The data set deals with CCRIS mutagenicity, Ames/micronucleus/aberration tests. Kind of data set: CCRIS mutagenicity studies.

The structures appear in SMILES notation. Active and inactive are the calls of the source. How the calls were made is not given here.

Take `O=C1CCCc2cc3c(cc21)cc([N+](=O)[O-])c1ccccc13`: the mutagenic call is “active; positive” (Test System: AMES SALMONELLA TYPHIMURIUM, Strain/Indicator: TA98-1,8-DNP6, Metabolic Activation: NONE); “inactive; negative” (Test System: AMES SALMONELLA TYPHIMURIUM, Strain/Indicator: TA98-1,8-DNP6, Metabolic Activation: S-9); “active; positive” (Test System: AMES SALMONELLA TYPHIMURIUM, Strain/Indicator: TA98, Metabolic Activation: NONE); “active; positive” (Test System: AMES SALMONELLA TYPHIMURIUM, Strain/Indicator: TA98, Metabolic Activation: S-9); “active; positive” (Test System: AMES SALMONELLA TYPHIMURIUM, Strain/Indicator: TA98NR, Metabolic Activation: NONE); “active; positive” (Test System: AMES SALMONELLA TYPHIMURIUM, Strain/Indicator: TA98NR, Metabolic Activation: S-9). Besides, the mutagenic call was “active; positive” (Test System: AMES SALMONELLA TYPHIMURIUM, Strain/Indicator: TA100, Metabolic Activation: NONE); “active; positive” (Test System: AMES SALMONELLA TYPHIMURIUM, Strain/Indicator: TA100, Metabolic Activation: S-9); “active; positive” (Test System: AMES SALMONELLA TYPHIMURIUM, Strain/Indicator: TA100NR, Metabolic Activation: NONE); “active; positive” (Test System: AMES SALMONELLA TYPHIMURIUM, Strain/Indicator: TA100NR, Metabolic Activation: S-9).
With `Nc1ccc(S(=O)(=O)Nc2nccs2)cc1`, the mutagenic call is “inactive; negative” (Test System: AMES SALMONELLA TYPHIMURIUM, Strain/Indicator: TA98, Metabolic Activation: HAMSTER, LIVER, S-9, AROCLOR 1254, Method: STANDARD PLATE); “inactive; negative” (Test System: AMES SALMONELLA TYPHIMURIUM, Strain/Indicator: TA98, Metabolic Activation: NONE, Method: STANDARD PLATE); “inactive; negative” (Test System: AMES SALMONELLA TYPHIMURIUM, Strain/Indicator: TA98, Metabolic Activation: RAT, LIVER, S-9, AROCLOR 1254, Method: STANDARD PLATE); “inactive; negative” (Test System: AMES SALMONELLA TYPHIMURIUM, Strain/Indicator: TA100, Metabolic Activation: HAMSTER, LIVER, S-9, AROCLOR 1254, Method: STANDARD PLATE); “inactive; negative” (Test System: AMES SALMONELLA TYPHIMURIUM, Strain/Indicator: TA100, Metabolic Activation: NONE, Method: STANDARD PLATE); “inactive; negative” (Test System: AMES SALMONELLA TYPHIMURIUM, Strain/Indicator: TA100, Metabolic Activation: RAT, LIVER, S-9, AROCLOR 1254, Method: STANDARD PLATE). Moreover, the mutagenic call is, setting by setting: (Test System: AMES SALMONELLA TYPHIMURIUM, Strain/Indicator: TA1535, Metabolic Activation: HAMSTER, LIVER, S-9, AROCLOR 1254, Method: STANDARD PLATE) “inactive; negative”; (Test System: AMES SALMONELLA TYPHIMURIUM, Strain/Indicator: TA1535, Metabolic Activation: NONE, Method: STANDARD PLATE) “inactive; negative”; (Test System: AMES SALMONELLA TYPHIMURIUM, Strain/Indicator: TA1535, Metabolic Activation: RAT, LIVER, S-9, AROCLOR 1254, Method: STANDARD PLATE) “inactive; negative”; (Test System: AMES SALMONELLA TYPHIMURIUM, Strain/Indicator: TA1537, Metabolic Activation: HAMSTER, LIVER, S-9, AROCLOR 1254, Method: STANDARD PLATE) “inactive; negative”; (Test System: AMES SALMONELLA TYPHIMURIUM, Strain/Indicator: TA1537, Metabolic Activation: NONE, Method: STANDARD PLATE) “inactive; negative”; (Test System: AMES SALMONELLA TYPHIMURIUM, Strain/Indicator: TA1537, Metabolic Activation: RAT, LIVER, S-9, AROCLOR 1254, Method: STANDARD PLATE) “inactive; negative”. Besides, the mutagenic call (Test System: AMES SALMONELLA TYPHIMURIUM, Strain/Indicator: TA1538, Metabolic Activation: HAMSTER, LIVER, S-9, AROCLOR 1254, Method: STANDARD PLATE) is “inactive; negative”; the mutagenic call (Test System: AMES SALMONELLA TYPHIMURIUM, Strain/Indicator: TA1538, Metabolic Activation: NONE, Method: STANDARD PLATE) was “inactive; negative”; the mutagenic call (Test System: AMES SALMONELLA TYPHIMURIUM, Strain/Indicator: TA1538, Metabolic Activation: RAT, LIVER, S-9, AROCLOR 1254, Method: STANDARD PLATE) is “inactive; negative”; the mutagenic call (Test System: MOUSE LYMPHOMA, Strain/Indicator: L5178Y (TK+/TK-), Metabolic Activation: NONE, Method: SUSPENSION/PLATE) was “inactive; negative. reevaluation of results: negative”; the mutagenic call (Test System: MOUSE LYMPHOMA, Strain/Indicator: L5178Y (TK+/TK-), Metabolic Activation: RAT, LIVER, S-9, AROCLOR 1254, Method: SUSPENSION/PLATE) is “inactive; negative. reevaluation of results: negative”.
As to `OC1C=Cc2c(cc3ccc4cccc5ccc2c3c45)C1O` (centres undefined), under “Test System: CHINESE HAMSTER V-79, Strain/Indicator: V-79/OUABAIN, Metabolic Activation: HAMSTER, EMBRYO, CELL-MEDIATED, Method: STANDARD PLATE”, the mutagenic call was “active; positive”.
In the case of `Oc1ccc2cc(SSc3ccc4cc(O)ccc4c3)ccc2c1`, the mutagenic call runs as follows: (Test System: AMES SALMONELLA TYPHIMURIUM, Strain/Indicator: TA97, Metabolic Activation: HAMSTER, LIVER, S-9, AROCLOR 1254 (10 OR 30%), Method: PREINCUBATION) “inactive; negative”; (Test System: AMES SALMONELLA TYPHIMURIUM, Strain/Indicator: TA97, Metabolic Activation: NONE, Method: PREINCUBATION) “inactive; negative”; (Test System: AMES SALMONELLA TYPHIMURIUM, Strain/Indicator: TA97, Metabolic Activation: RAT, LIVER, S-9, AROCLOR 1254 (10 OR 30%), Method: PREINCUBATION) “inactive; negative”; (Test System: AMES SALMONELLA TYPHIMURIUM, Strain/Indicator: TA98, Metabolic Activation: HAMSTER, LIVER, S-9, AROCLOR 1254 (10 OR 30%), Method: PREINCUBATION) “inactive; negative”; (Test System: AMES SALMONELLA TYPHIMURIUM, Strain/Indicator: TA98, Metabolic Activation: NONE, Method: PREINCUBATION) “inactive; negative”; (Test System: AMES SALMONELLA TYPHIMURIUM, Strain/Indicator: TA98, Metabolic Activation: RAT, LIVER, S-9, AROCLOR 1254 (5 OR 30%), Method: PREINCUBATION) “inactive; negative”. In addition, the mutagenic call by setting is: (Test System: AMES SALMONELLA TYPHIMURIUM, Strain/Indicator: TA98, Metabolic Activation: RAT, LIVER, S-9, AROCLOR 1254 (10%), Method: PREINCUBATION) “inactive; negative”; (Test System: AMES SALMONELLA TYPHIMURIUM, Strain/Indicator: TA100, Metabolic Activation: HAMSTER, LIVER, S-9, AROCLOR 1254 (10 OR 30%), Method: PREINCUBATION) “inactive; negative”; (Test System: AMES SALMONELLA TYPHIMURIUM, Strain/Indicator: TA100, Metabolic Activation: NONE, Method: PREINCUBATION) “inactive; negative”; (Test System: AMES SALMONELLA TYPHIMURIUM, Strain/Indicator: TA100, Metabolic Activation: RAT, LIVER, S-9, AROCLOR 1254 (5 OR 30%), Method: PREINCUBATION) “inactive; negative”; (Test System: AMES SALMONELLA TYPHIMURIUM, Strain/Indicator: TA100, Metabolic Activation: RAT, LIVER, S-9, AROCLOR 1254 (10%), Method: PREINCUBATION) “inactive; negative”; (Test System: AMES SALMONELLA TYPHIMURIUM, Strain/Indicator: TA102, Metabolic Activation: HAMSTER, LIVER, S-9, AROCLOR 1254 (10 OR 30%), Method: PREINCUBATION) “inactive; negative”. Besides, the mutagenic call is “inactive; negative” (Test System: AMES SALMONELLA TYPHIMURIUM, Strain/Indicator: TA102, Metabolic Activation: NONE, Method: PREINCUBATION); “inactive; negative” (Test System: AMES SALMONELLA TYPHIMURIUM, Strain/Indicator: TA102, Metabolic Activation: RAT, LIVER, S-9, AROCLOR 1254 (10 OR 30%), Method: PREINCUBATION); “inactive; negative” (Test System: AMES SALMONELLA TYPHIMURIUM, Strain/Indicator: TA1535, Metabolic Activation: RAT, LIVER, S-9, AROCLOR 1254 (5, 10 OR 30%), Method: PREINCUBATION); “inactive; negative” (Test System: AMES SALMONELLA TYPHIMURIUM, Strain/Indicator: TA1538, Metabolic Activation: RAT, LIVER, S-9, AROCLOR 1254 (5, 10 OR 30%), Method: PREINCUBATION).

The values above are taken from PubChem BioAssay AID1259407 (Chemical Carcinogenesis Research Information System (CCRIS), 2018).
